Assay results reported in publication PMC9282638, “A Suite of Activity-Based Probes To Dissect the KLK Activome in Drug-Resistant Prostate Cancer” (Journal of the American Chemical Society, 2021).

The compounds below were run on KLK2, KLK3, and KLK14 (assay: Streptavidin blotting of LNCaP-K14 conditioned media after treatment with biotinylated ABPs). Conditions: CM of LNCaP-K14 cells, 10 nM DHT and 200 nM Dox; 1 h; concentration-dependent labeling.
Assay type: biochemical, human
Experimental: With ABPs for KLK2, KLK3, and KLK14 in hand, we next addressed selective readouts of KLK activities in a complex biological system. Compounds 20, 31, and 39 were incubated with CM obtained from LNCaP-K14 cells, in which KLK14 expression has been placed under the control of a doxycycline-inducible promoter, stimulated with 10 nM DHT and 200 nM doxycycline (Dox).[15] […] In line with previous reports KLK14 appears as a double band due to protein glycosylation.[15],[39] Selective covalent modification of KLK2, KLK3, and KLK14 by 31, 20, and 39, respectively, was confirmed by streptavidin enrichment and immunoblotting (Figures S19 and S20). In the following experiments, biotinylated ABPs (bABPs) 31, 20, and 39 are named KLK2_bABP, KLK3_bABP, and KLK14_bABP, respectively.
FBS) were seeded onto the bone matrix. As a control the same number of LNCaP cells were seeded in a T175 plate lacking osteoblast cells. After 12 h, the media was aspirated, and the co-culture was incubated with serum-free RPMI media (0 % FBS and phenol red-free) for a further 48 h. After 48 h the media was collected, passed through a 0.2 μm syringe filter and stored at – 80 °C until needed. Indirect Co-culture – After 6 weeks, the media was aspirated, and the differentiated osteoblasts were incubated with serum-free RPMI media (0 % FBS and phenol red-free) for a further 48 h. After 48 h the media was collected, passed through a 0.2 μm syringe filter and then added to a T175 plate of LNCaP cells grown to 80 % confluency and hormone starved for 24 h in RPMI media supplemented with 5 % charcoal stripped FBS. […]
The protein concentration of the homogenate was measured using the DC Protein Assay (BioRad), following the manufacturer’s instructions. […]
Preparation of conditioned media: Samples of conditioned media were removed from – 80 °C storage and concentrated by centrifugation (3000 g, 10 °C) in a 3 KDa molecular weight cut-off spin filter (Amicon) for approximately 3 h. […] The protein concentration of the media was measured using the DC Protein Assay (BioRad), following the manufacturer’s instructions. […]

Compound | targets labeled (probe selectivity)
CCC[C@H](NC(=O)[C@H](CCC(N)=O)NC(=O)[C@H](CC(N)=O)NC(=O)CCCCCNC(=O)CCCC[C@@H]1SC[C@@H]2NC(=O)N[C@@H]21)C(=O)NC(c1ccc(C(N)=O)cc1)P(=O)(Oc1ccccc1)Oc1ccccc1 (stereo partly drawn) [compound 20] | single target
CC(C)(C)C(NC(=O)CCCCCNC(=O)CCCCC1SCC2NC(=O)NC21)C(=O)NC(CCN)C(=O)NC(Cc1ccc(O)cc1)C(=O)NC(c1ccc(NC(=N)N)cc1)P(=O)(Oc1ccccc1)Oc1ccccc1 (stereo not drawn) [compound 31, Tle-Dab-Tyr-Arg] | single target
CCC(NC(=O)C(CCN)NC(=O)C(Cc1ccc2ccccc2c1)NC(=O)CCCCCNC(=O)CCCCC1SCC2NC(=O)NC21)C(=O)NC(c1ccc(NC(=N)N)cc1)P(=O)(Oc1ccccc1)Oc1ccccc1 (stereo not drawn) [compound 39, 2Nal-Dab-Abu-Arg] | single target
